Test: mn = molality of the nth substance listed, in mol/kg
Details: 101.3 kPa, Liquid; for speed of sound: Frequency=2 MHz, Linear variable-path acoustic interferometer; for mass density: Pycnometric method

NNC(=O)c1ccncc1 [isonicotinic acid hydrazide] + O
Details | mass density [kg/m3] | speed of sound [m/s]
288.15 K, m1 = 0.0099 | 999.49 | 1466.6
288.15 K, m1 = 0.02 | 999.88 | 1467.3
288.15 K, m1 = 0.03 | 1000.26 | 1468
288.15 K, m1 = 0.0401 | 1000.64 | 1468.7
288.15 K, m1 = 0.0495 | 1001 | 1469.4
288.15 K, m1 = 0.055 | 1001.19 | 1469.8
288.15 K, m1 = 0.06 | 1001.38 | 1470.1
288.15 K, m1 = 0.065 | 1001.55 | 1470.5
288.15 K, m1 = 0.0708 | 1001.77 | 1470.9
288.15 K, m1 = 0.075 | 1001.92 | 1471.2
288.15 K, m1 = 0.0809 | 1002.12 | 1471.6
288.15 K, m1 = 0.0846 | 1002.25 | 1471.9
288.15 K, m1 = 0.0901 | 1002.45 | 1472.3
288.15 K, m1 = 0.0949 | 1002.62 | 1472.6
288.15 K, m1 = 0.1002 | 1002.81 | 1473
298.15 K, m1 = 0.0099 | 997.39 | 1497.4
298.15 K, m1 = 0.0197 | 997.69 | 1498.1
298.15 K, m1 = 0.0299 | 998.02 | 1498.8
298.15 K, m1 = 0.04 | 998.35 | 1499.6
298.15 K, m1 = 0.0499 | 998.67 | 1500.3
298.15 K, m1 = 0.055 | 998.83 | 1500.6
298.15 K, m1 = 0.0599 | 998.99 | 1500.9
298.15 K, m1 = 0.0649 | 999.15 | 1501.3
298.15 K, m1 = 0.0699 | 999.31 | 1501.6
298.15 K, m1 = 0.075 | 999.47 | 1502
298.15 K, m1 = 0.0797 | 999.61 | 1502.3
298.15 K, m1 = 0.085 | 999.78 | 1502.7
298.15 K, m1 = 0.0897 | 999.92 | 1503
298.15 K, m1 = 0.0949 | 1000.09 | 1503.4
298.15 K, m1 = 0.1006 | 1000.26 | 1503.8
308.15 K, m1 = 0.0099 | 994.3 | 1520.5
308.15 K, m1 = 0.0199 | 994.58 | 1521.3
308.15 K, m1 = 0.0301 | 994.85 | 1522
308.15 K, m1 = 0.04 | 995.12 | 1522.7
308.15 K, m1 = 0.0501 | 995.39 | 1523.5
308.15 K, m1 = 0.055 | 995.52 | 1523.9
308.15 K, m1 = 0.06 | 995.64 | 1524.2
308.15 K, m1 = 0.0649 | 995.76 | 1524.6
308.15 K, m1 = 0.0699 | 995.9 | 1525
308.15 K, m1 = 0.0751 | 996.03 | 1525.3
308.15 K, m1 = 0.0799 | 996.15 | 1525.7
308.15 K, m1 = 0.0851 | 996.28 | 1526.1
308.15 K, m1 = 0.09 | 996.41 | 1526.4
308.15 K, m1 = 0.095 | 996.53 | 1526.8
308.15 K, m1 = 0.1002 | 996.67 | 1527.2

[Cl-].[K+] [potassium chloride] + O
Details | mass density, 288.15 K [kg/m3] | mass density, 298.15 K [kg/m3] | mass density, 308.15 K [kg/m3] | speed of sound, 288.15 K [m/s] | speed of sound, 298.15 K [m/s] | speed of sound, 308.15 K [m/s]
m1 = 0.06 | 1002.26 | 1000.42 | 997.25 | 1467.4 | 1498.3 | 1522.2
m1 = 0.1 | 1003.48 | 1001.79 | 998.71 | 1469.6 | 1502.5 | 1525.1

Reference: the NIST ThermoML archive (doi:10.1016/j.jct.2018.04.003)
